Numbers after ± are expanded uncertainties.
Experiments:
[1] = for speed of sound / mass density / viscosity: 101.33 kPa, Liquid; for speed of sound: Sing-around technique in a fixed-path interferometer; for mass density: Vibrating tube method; for surface tension liquid-gas: Drop weight; for viscosity: Capillary tube (Ostwald / Ubbelohde) method
[2] = refractive index (Na D-line) (dimensionless); conditions: 101.33 kPa, Liquid, Standard Abbe refractometry

## CCCCn1cc[n+](C)c1.COS(=O)(=O)[O-] [1-butyl-3-methylimidazolium methyl sulfate]
[1]; 278.15 K
  speed of sound: 1708.3 ± 5.2 m/s
  mass density: 1225.84 ± 8.2 kg/m3
[1]; 283.15 K
  surface tension liquid-gas: 45.9 ± 1.2 mN/m
  speed of sound: 1695.8 ± 5.2 m/s
  mass density: 1222.44 ± 8.1 kg/m3
[1]; 288.15 K
  surface tension liquid-gas: 45 ± 1.1 mN/m
  speed of sound: 1683.4 ± 5.2 m/s
  mass density: 1219.03 ± 8.1 kg/m3
[1]; 293.15 K
  surface tension liquid-gas: 44.1 ± 1.1 mN/m
  viscosity: 288.99 ± 14 mPa·s
  speed of sound: 1670.9 ± 5.2 m/s
  mass density: 1215.62 ± 8 kg/m3
[1]; 298.15 K
  surface tension liquid-gas: 43.3 ± 1.1 mN/m
  viscosity: 213.19 ± 9 mPa·s
  speed of sound: 1658.4 ± 5.2 m/s
  mass density: 1212.22 ± 8 kg/m3
[1]; 303.15 K
  surface tension liquid-gas: 42.8 ± 1.1 mN/m
  viscosity: 160.93 ± 6 mPa·s
  speed of sound: 1646 ± 5.2 m/s
  mass density: 1208.81 ± 8 kg/m3
[1]; 308.15 K
  surface tension liquid-gas: 42.3 ± 1.1 mN/m
  viscosity: 123.73 ± 4.2 mPa·s
  speed of sound: 1633.5 ± 5.2 m/s
  mass density: 1205.41 ± 7.9 kg/m3
[1]; 313.15 K
  surface tension liquid-gas: 41.8 ± 1.1 mN/m
  viscosity: 96.83 ± 3 mPa·s
  speed of sound: 1621.1 ± 5.2 m/s
  mass density: 1202.04 ± 7.9 kg/m3
[1]; 318.15 K
  viscosity: 77.08 ± 2.2 mPa·s
  speed of sound: 1608.6 ± 5.2 m/s
  mass density: 1198.66 ± 7.8 kg/m3
[1]; 323.15 K
  viscosity: 62.22 ± 1.6 mPa·s
  speed of sound: 1596.1 ± 5.2 m/s
  mass density: 1195.34 ± 7.8 kg/m3
[1]; 328.15 K
  speed of sound: 1583.7 ± 5.2 m/s
  mass density: 1192.02 ± 7.7 kg/m3
[1]; 333.15 K
  viscosity: 42.24 ± 1.1 mPa·s
  speed of sound: 1571.2 ± 5.2 m/s
  mass density: 1188.73 ± 7.7 kg/m3
[1]; 338.15 K
  speed of sound: 1558.8 ± 5.2 m/s
  mass density: 1185.45 ± 7.6 kg/m3
[1]; 343.15 K
  viscosity: 29.99 ± 0.8 mPa·s
  speed of sound: 1546.3 ± 5.2 m/s
  mass density: 1182.19 ± 7.6 kg/m3
[2]; 283.15 K
  refractive index: 1.48351 ± 0.0011
[2]; 288.15 K
  refractive index: 1.48213 ± 0.0011
[2]; 293.15 K
  refractive index: 1.48076 ± 0.0011
[2]; 298.15 K
  refractive index: 1.47942 ± 0.0011
[2]; 303.15 K
  refractive index: 1.47805 ± 0.0011
[2]; 308.15 K
  refractive index: 1.47671 ± 0.0011
[2]; 313.15 K
  refractive index: 1.47536 ± 0.0011
[2]; 318.15 K
  refractive index: 1.474 ± 0.0011
[2]; 323.15 K
  refractive index: 1.47266 ± 0.0011
[2]; 328.15 K
  refractive index: 1.47132 ± 0.0011
[2]; 333.15 K
  refractive index: 1.47 ± 0.0011
[2]; 338.15 K
  refractive index: 1.46864 ± 0.0011
[2]; 343.15 K
  refractive index: 1.46725 ± 0.0011
